Laboratory results: patent US5821331A, “Anti-picornaviral agents” (Eli Lilly and Company, priority 1996, dated 1998)
Where a SMILES comes first, the peptide text is derived from it. The star is where a group is joined. Boc = CC(C)(C)OC(=O)*

Assays:
[1] = test system: 2C'3ABCD portion of the HRV polyprotein precursor; experiment: In Vitro Translation of HRV RNA (rabbit reticulocyte lysate, autoradiography); type: biochemical, human rhinovirus; details: for Processing of translated viral polyprotein (autoradiography): inhibitor included in cell-free translation assay
Excerpt: In a cell-free translation system, when no inhibitor was present, RNA corresponding to the 2C'3ABCD portion of the HRV polypeptide precursor was translated into the various individual proteins of the virus. […]
Complementary DNA derived from the HRV genone and representing the 2C'3ABCD portion of the HRV polyprotein precursor (Lee W, Monroe S S, Reuckert R R (1993) J. Virol 67:211-2122) was inserted into the commercially available pCITE vector (Novagen, 565 Science Dr., Madison, Wis.). The vector is supplied with the Novagen Red Nova® Lysate translation assay kit, which provides a lysate of New Zealand White rabbit reticulocytes along with other reagents, that allows for efficient cell-free synthesis of proteins from exogenous RNA templates.
The pCITE 2C'3ABCD-containing plasmid was used to transform the JM101 cell line (Stratagene, La Jolla, Calif.) which was then grown under standardard conditions ([…], 37° C.) in 2× YT broth with ampicillin. The plasmid was then isolated by standard CsCl banding procedures.
The DNA was linearized by treatign the plasmid with 2 unitsMlu 1 restriction enzyme per μg DNA for 3 hours at 37° C., followed by proteinase K (50 μg/mL) treatment for 30 minutes at 37° C. The mixture was extracted twice with phenol/chloroform/isoamyl alcohol (1:1:1) followed by two extractions with chloroform/isoamyl alcohol (1:1). A 0.1 volume 3M sodium acetate (NaOAc), pH 5.2 and two volumes of 100% ethanol were added before placing at -80° C. for 60 minutes. The supernatant was decanted and the pellet was rinsed with 70% ethanol, dried under vacuum, and then resuspended in 25 μL Tris-EDTA buffer (10 mM Tris, 1 mM EDTA; pH 7.6). […]
The compounds of Formula I were assayed according to the Red Nova protocol for their ability to inhibit translation of the rhinoviral RNA by the reticulocyte lysate. ^3 H-Leucine (5 mCi/mL) was included in the assay mixture so that translation products could be identified by autoradiography when the samples were analyzed by SDS polyacrylamide gel electrophoresis. […]

[2] = test system: HRV; experiment: Whole Cell Culture Assay of Anti-HRV Activity (Hela cells, XTT); type: cell-based, human rhinovirus; details: concentration not given
Procedure: A third measure of antiviral activity was performed by determining the effects of selected 3C protease inhibitors of Formula I on HRV infection in cultures of Hela cells.
Commercially available Hela cells are susceptible to HRV infection. The virus enters the cells where it readily replicates and when infection levels become high enough, the Hela cells die. The effect of HRV inhibitors can be measured in Hela cultures by first exposing the cells to HRV and shortly thereafter (before viral infection becomes critical) adding potential inhibitors. Compounds which inhibit 3C protease activity serve to protect the cells from the cytopathic effect of the virus. Comparison of viability in cultures receiving serial dilutions of inhibitor to cultures not receiving any inhibitor allows quantitation of the antiviral effect. Any toxic effect of the inhibitor can also be measured by comparing viability of treated cultures with those cultures which are not infected with the virus.
Viability determinations can be readily made by direct counts of viable cells or by assays representative of viability such as measurement of mitochondrial enzyme activity.
Hela cells were dispersed in a 96-well tissue culture plate at 20,000 cells per well with minimum essential medium containing Earl's balanced salt solution, 1% fetal bovine serum, penicillin (150 units/mL) and streptomycin (150 μg/mL). […]

Structure (SMILES)	Processing of translated viral polyprotein (autoradiography) [1]	Translation Assay (toxic) ([1]; at the dose tested (dose not given))	Whole Cell Antiviral Testing (toxic) [2]
CC(=O)N[C@@H](CC(C)C)C(=O)N[C@@H](Cc1ccccc1)C(=O)N[C@H](C=O)CCC(N)=O [Example 6, N-(Acetyl-L-leucinyl-L-phenylalanyl)-L-glutamine aldehyde] (Ac-Leu-Phe-Gln-aldehyde)	single unprocessed band	–	–
CC(C)C[C@H](N)C(=O)N[C@@H](Cc1ccccc1)C(=O)N[C@H](C=O)CCC(N)=O [Example 7, N-(L-leucinyl-L-phenylalanyl)-L-glutamine aldehyde] (H-Leu-Phe-Gln-aldehyde)	–	toxic	toxic
CC(C)C[C@H](NC(=O)[C@@H](NC(=O)OC(C)(C)C)C(C)C)C(=O)N[C@@H](Cc1ccccc1)C(=O)N[C@H](C=O)CCC(N)=O [Example 5, N-(t-butoxycarbonyl-L-valinyl-L-leucinyl-L-phenylalanyl)-L-gluatamine aldehyde] (Boc-VLFQ-aldehyde)	single unprocessed band	–	–
